Laboratory results as given in patent publication US8669288B2, “Lysine salts of 4-((phenoxyalkyl)thio)-phenoxyacetic acid derivatives” (Janssen Pharmaceutica N.V., priority 2005, dated 2014).
Where a name gives a salt, the structure may show the parent alone.

Columns and labels:
Type in all cases: physicochemical
[1] = DVS isotherm, cycling humidity 0-90% RH; settings: 25° C., 0-90% RH in 10% RH increments
Description: The non-hydrate, L-lysine salt of the compound of formula (Ia) was subjected to cycling humidity conditions, with results as shown in FIG. 3. More specifically, the sample was analyzed through a full cycle in step mode at 25° C., from 0-90% RH (relative humidity) in 10% RH increments. The equilibration conditions set were as follows: dm/dt of 0.0007; dm/dt window of 5 mins; minimum and maximum stages of 15 and 360 minutes. Data was collected in 1 minute intervals. Nitrogen was used as the carrier gas.

[2] = Solubility in distilled water
pKa = test: pKa

Q: For CCO[C@H](COc1ccc(C(F)(F)F)cc1)CSc1ccc(OCC(=O)O)c(C)c1 [{4-[2-Ethoxy-3-(4-trifluoromethyl-phenoxy)-propylsulfanyl]-2-methyl-phenoxy}-acetic acid L-Lysine non-hydrate salt], which “Form conversion under cycling humidity conditions” value [1] is on record?
A: The value was “reversibly converts to the corresponding di-hydrate form by absorbing water”.

Q: Which results are given for CCO[C@H](COc1ccc(C(F)(F)F)cc1)CSc1ccc(OCC(=O)O)c(C)c1 [Compound of formula (la), (R)-{4-[2-Ethoxy-3-(4-trifluoromethyl-phenoxy)-propylsulfanyl]-2-methyl-phenoxy}-acetic acid]?
A: solubility ([2]; pH 7.4, water): ~1000 µg/mL; solubility ([2]; water, pH 2.0): < 2 µg/mL; pKa (pKa): 3.63
